# Results published in patent publication US10934296B2, “4-imidazopyridazin-1-yl-benzamides as Btk inhibitors” (Merck Sharp & Dohme B.V., priority 2011, dated 2021).
# Target: Lck enzyme (Homo sapiens (Human), UniProt P06239)
# Test: Lck enzyme activity, IMAP fluorescence polarization assay
# Settings: 60 min pre-incubation, 6 μM ATP, bin bounds in μM
# Lck enzyme, sequence (P06239 whole entry): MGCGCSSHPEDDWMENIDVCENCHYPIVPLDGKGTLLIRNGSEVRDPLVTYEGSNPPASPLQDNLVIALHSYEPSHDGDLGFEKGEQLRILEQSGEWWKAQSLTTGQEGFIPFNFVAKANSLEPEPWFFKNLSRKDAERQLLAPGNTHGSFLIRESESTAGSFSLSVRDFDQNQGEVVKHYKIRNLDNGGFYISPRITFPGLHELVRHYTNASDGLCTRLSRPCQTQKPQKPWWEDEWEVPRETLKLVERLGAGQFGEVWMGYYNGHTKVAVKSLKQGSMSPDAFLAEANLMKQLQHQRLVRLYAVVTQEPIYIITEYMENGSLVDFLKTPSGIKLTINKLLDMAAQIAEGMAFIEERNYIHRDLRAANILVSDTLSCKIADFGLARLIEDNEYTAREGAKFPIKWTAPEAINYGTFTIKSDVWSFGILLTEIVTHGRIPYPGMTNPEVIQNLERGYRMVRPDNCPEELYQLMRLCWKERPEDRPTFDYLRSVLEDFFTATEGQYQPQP
row,Structure (SMILES),EC50 Lck activity values [µM]
1,"CCCc1ccnc(NC(=O)c2ccc(-c3nc([C@H](C)N(C)C(=O)/C=C/CN(C)C)n4ccnc(N)c34)cc2)c1 [Example 76, (S,E)-4-(8-amino-3-(1-(4-(dimethylamino)-N-methylbut-2-enamido)ethyl)imidazo[1,5-a]pyrazin-1-yl)-N-(4-propylpyridin-2-yl)benzamide]",<1
2,"C=CC(=O)N1CCC[C@H]1c1nc(-c2ccc(C(=O)Nc3cc(C(F)(F)F)ccn3)cc2)c2c(N)nccn12 [Example 62, (S)-4-(3-(1-acryloylpyrrolidin-2-yl)-8-aminoimidazo[1,5-a]pyrazin-1-yl)-N-(4-(trifluoromethyl)pyridin-2-yl)benzamide]",<1
3,"CC#CC(=O)N1CCCC[C@H]1c1nc(-c2ccc(C(=O)Nc3cc(CCC)ccn3)cc2)c2c(N)nccn12 [Example 64, (S)-4-(8-amino-3-(1-but-2-ynoylpiperidin-2-yl)imidazo[1,5-a]pyrazin-1-yl)-N-(4-propylpyridin-2-yl)benzamide]",<1

# Other lines, results leading:
row,EC50 Lck activity values [µM],Structure (SMILES)
1,<1,"Nc1nccn2c([C@@H]3CCCN3C(=O)/C=C/c3ccccc3)nc(-c3ccc(C(=O)Nc4ccccn4)cc3)c12 [Example 104, (S,E)-4-(8-amino-3-(1-cinnamoylpyrrolidin-2-yl)imidazo[1,5-a]pyrazin-1-yl)-N-(pyridin-2-yl)benzamide]"
2,<1,"C=CC(=O)N1CCC[C@H]1c1nc(-c2ccc(C(=O)Nc3cc(CCC)ccn3)cc2)c2c(N)nccn12 [Example 125, (S)-4-(3-(1-acryloylpyrrolidin-2-yl)-8-aminoimidazo[1,5-a]pyrazin-1-yl)-N-(4-propylpyridin-2-yl)benzamide]"
3,<1,"CC#CC(=O)N1CCC[C@H]1c1nc(-c2ccc(C(=O)Nc3cc(-c4ccccc4)ccn3)cc2)c2c(N)nccn12 [Example 132, (S)-4-(8-amino-3-(1-but-2-ynoylpyrrolidin-2-yl)imidazo[1,5-a]pyrazin-1-yl)-N-(4-phenylpyridin-2-yl)benzamide]"
4,<1,"C=CC(=O)N1CCC[C@H]1c1nc(-c2ccc(C(=O)Nc3cc(C#N)ccn3)cc2)c2c(N)nccn12 [Example 122, (S)-4-(3-(1-acryloylpyrrolidin-2-yl)-8-aminoimidazo[1,5-a]pyrazin-1-yl)-N-(4-cyanopyridin-2-yl)benzamide]"
5,<1,"C=CC(=O)N1CCC[C@H]1c1nc(-c2ccc(C(=O)Nc3cc(CC)ccn3)cc2)c2c(N)nccn12 [Example 126, (S)-4-(3-(1-acryloylpyrrolidin-2-yl)-8-aminoimidazo[1,5-a]pyrazin-1-yl)-N-(4-ethylpyridin-2-yl)benzamide]"
6,<1,"C=CC(=O)N1CCC[C@H]1c1nc(-c2ccc(C(=O)Nc3cc(-c4ccccc4)ccn3)cc2)c2c(N)nccn12 [Example 133, (S)-4-(3-(1-acryloylpyrrolidin-2-yl)-8-aminoimidazo[1,5-a]pyrazin-1-yl)-N-(4-phenylpyridin-2-yl)benzamide]"

# Target: Btk enzyme (His-Btk) (Homo sapiens (Human), UniProt Q06187)
# Test: Btk enzyme activity, IMAP fluorescence polarization assay
# Settings: 60 min pre-incubation, 5 μM ATP, bin bounds in nM
# Btk enzyme (His-Btk), sequence (Q06187 whole entry): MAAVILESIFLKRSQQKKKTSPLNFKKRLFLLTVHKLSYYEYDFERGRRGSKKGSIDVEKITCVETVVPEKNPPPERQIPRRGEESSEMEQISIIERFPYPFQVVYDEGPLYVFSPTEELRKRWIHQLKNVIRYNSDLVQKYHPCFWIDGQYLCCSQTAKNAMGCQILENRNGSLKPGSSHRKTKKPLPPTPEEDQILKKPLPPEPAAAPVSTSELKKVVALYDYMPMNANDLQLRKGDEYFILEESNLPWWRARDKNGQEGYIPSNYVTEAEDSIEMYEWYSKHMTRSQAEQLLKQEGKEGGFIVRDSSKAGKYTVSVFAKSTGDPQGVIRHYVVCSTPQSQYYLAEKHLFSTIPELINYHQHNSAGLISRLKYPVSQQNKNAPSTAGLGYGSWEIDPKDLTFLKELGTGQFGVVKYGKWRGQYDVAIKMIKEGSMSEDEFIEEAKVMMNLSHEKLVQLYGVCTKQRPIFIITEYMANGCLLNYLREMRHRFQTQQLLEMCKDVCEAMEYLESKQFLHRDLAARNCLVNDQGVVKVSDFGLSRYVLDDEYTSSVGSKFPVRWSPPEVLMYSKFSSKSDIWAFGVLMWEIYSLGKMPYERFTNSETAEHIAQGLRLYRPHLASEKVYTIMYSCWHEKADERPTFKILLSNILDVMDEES
row,Structure (SMILES),EC50 Btk activity values [nM]
1,"Nc1nccn2c([C@@H]3CCCN3C(=O)c3ccnc(Cl)n3)nc(-c3ccc(C(=O)Nc4ccccn4)cc3)c12 [Example 5, (S)-4-(8-amino-3-(1-(2-chloropyrimidine-4-carbonyl)pyrrolidin-2-yl)imidazo[1,5-a]pyrazin-1-yl)-N-(pyridin-2-yl)benzamide]",<100
2,"CN(C)CC#CC(=O)N1CCC[C@H]1c1nc(-c2ccc(C(=O)Nc3ccccn3)cc2)c2c(N)nccn12 [Example 40, (S)-4-(8-Amino-3-(1-(4-(dimethylamino)but-2-ynoyl)pyrrolidin-2-yl)imidazo[1,5-a]pyrazin-1-yl)-N-(pyridin-2-yl)benzamide]",<100
3,"Nc1nccn2c([C@@H]3CCCN3C(=O)c3ccnc(Cl)n3)nc(-c3ccc(C(=O)Nc4nc5c(s4)CCCC5)cc3)c12 [Example 71, (S)-4-(8-amino-3-(1-(2-chloropyrimidine-4-carbonyl)pyrrolidin-2-yl)imidazo[1,5-a]pyrazin-1-yl)-N-(4,5,6,7-tetrahydrobenzo[d]thiazol-2-yl)benzamide]",<100
4,"COC/C=C/C(=O)N1CCC[C@H]1c1nc(-c2ccc(C(=O)Nc3cc(C)ccn3)cc2)c2c(N)nccn12 [Example 57, (S,E)-4-(8-amino-3-(1-(4-methoxybut-2-enoyl)pyrrolidin-2-yl)imidazo[1,5-a]pyrazin-1-yl)-N-(4-methylpyridin-2-yl)benzamide]",<100
5,"CN(C)C/C=C/C(=O)NCc1nc(-c2ccc(C(=O)Nc3ccccn3)cc2)c2c(N)nccn12 [Example 69, (E)-4-(8-amino-3-((4-(dimethylamino)but-2-enamido)methyl)imidazo[1,5-a]pyrazin-1-yl)-N-(pyridin-2-yl)benzamide]",<100
6,"Nc1nccn2c([C@@H]3CCCN3C(=O)/C=C/CN3CCCC3)nc(-c3ccc(C(=O)Nc4ccccn4)cc3)c12 [Example 2, (S,E)-4-(8-amino-3-(1-(4-(pyrrolidin-1-yl)but-2-enoyl)pyrrolidin-2-yl)imidazo[1,5-a]pyrazin-1-yl)-N-(pyridin-2-yl)benzamide]",<100
7,"CC#CC(=O)N1CCC[C@H]1c1nc(-c2ccc(C(=O)Nc3ccccn3)c(F)c2)c2c(N)nccn12 [Example 50, (S)-4-(8-amino-3-(1-but-2-ynoylpyrrolidin-2-yl)imidazo[1,5-a]pyrazin-1-yl)-2-fluoro-N-(pyridin-2-yl)benzamide]",<100
8,"COC/C=C/C(=O)N1CCC[C@H]1c1nc(-c2ccc(C(=O)Nc3ccccn3)cc2)c2c(N)nccn12 [Example 4, (S,E)-4-(8-amino-3-(1-(4-methoxybut-2-enoyl)pyrrolidin-2-yl)imidazo[1,5-a]pyrazin-1-yl)-N-(pyridin-2-yl)benzamide]",<100
9,"COC/C=C/C(=O)N1CCC[C@H]1c1nc(-c2ccc(C(=O)Nc3nc4c(s3)CCCC4)cc2)c2c(N)nccn12 [Example 82, (S,E)-4-(8-amino-3-(1-(4-methoxybut-2-enoyl)pyrrolidin-2-yl)imidazo[1,5-a]pyrazin-1-yl)-N-(4,5,6,7-tetrahydrobenzo[d]thiazol-2-yl)benzamide]",<100
10,"CN(C)C/C=C/C(=O)N1CCC[C@H]1c1nc(-c2ccc(C(=O)Nc3cc(F)ccn3)cc2)c2c(N)nccn12 [Example 7, (S,E)-4-(8-Amino-3-(1-(4-(dimethylamino)but-2-enoyl)pyrrolidin-2-yl)imidazo[1,5-a]pyrazin-1-yl)-N-(4-fluoropyridin-2-yl)benzamide]",<100
11,"COC/C=C/C(=O)N1CCC[C@H]1c1nc(-c2ccc(C(=O)Nc3cc(C(C)C)ccn3)cc2)c2c(N)nccn12 [Example 58, (S,E)-4-(8-amino-3-(1-(4-methoxybut-2-enoyl)pyrrolidin-2-yl)imidazo[1,5-a]pyrazin-1-yl)-N-(4-isopropylpyridin-2-yl)benzamide]",<100

# The next lines start with the values.
row,EC50 Btk activity values [nM],Structure (SMILES)
1,<100,"CC#CC(=O)N(C)[C@@H](C)c1nc(-c2ccc(C(=O)Nc3cc(CCC)ccn3)cc2)c2c(N)nccn12 [Example 113, (S)-4-(8-amino-3-(1-(N-methylbut-2-ynamido)ethyl)imidazo[1,5-a]pyrazin-1-yl)-N-(4-propylpyridin-2-yl)benzamide]"
2,<100,"Nc1nccn2c([C@@H]3CCCN3C(=O)c3ccnc(Cl)n3)nc(-c3ccc(C(=O)Nc4cc(C(F)(F)F)ccn4)cc3)c12 [Example 119, (S)-4-(8-amino-3-(1-(2-chloropyrimidine-4-carbonyl)pyrrolidin-2-yl)imidazo[1,5-a]pyrazin-1-yl)-N-(4-(trifluoromethyl)pyridin-2-yl)benzamide]"
3,<100,"COC/C=C/C(=O)N1CCC[C@H]1c1nc(-c2ccc(C(=O)Nc3ccccn3)c(OC)c2)c2c(N)nccn12 [Example 103, (S,E)-4-(8-amino-3-(1-(4-methoxybut-2-enoyl)pyrrolidin-2-yl)imidazo[1,5-a]pyrazin-1-yl)-2-methoxy-N-(pyridin-2-yl)benzamide]"
4,<100,"CC#CC(=O)N1CCC[C@H]1c1nc(-c2ccc(C(=O)Nc3cc(N4CCCC4)ccn3)cc2)c2c(N)nccn12 [Example 96, (S)-4-(8-amino-3-(1-but-2-ynoylpyrrolidin-2-yl)imidazo[1,5-a]pyrazin-1-yl)-N-(4-(pyrrolidin-1-yl)pyridin-2-yl)benzamide]"

# Same assay, conditions: 60 min pre-incubation, 5 μM ATP, bin bounds in μM
row,EC50 Btk activity values [nM],Structure (SMILES)
1,<1000,"Nc1nccn2c([C@@H]3CCCN3C(=O)/C=C/c3ccccc3)nc(-c3ccc(C(=O)Nc4ccccn4)cc3)c12 [Example 104, (S,E)-4-(8-amino-3-(1-cinnamoylpyrrolidin-2-yl)imidazo[1,5-a]pyrazin-1-yl)-N-(pyridin-2-yl)benzamide]"
2,<1000,"COC/C=C/C(=O)N1CCCC[C@H]1c1nc(-c2ccc(C(=O)Nc3cccnn3)cc2)c2c(N)nccn12 [Example 72, (S,E)-4-(8-amino-3-(1-(4-methoxybut-2-enoyl)piperidin-2-yl)imidazo[1,5-a]pyrazin-1-yl)-N-(pyridazin-3-yl)benzamide]"
3,<1000,"COC/C=C/C(=O)N1CCCC[C@H]1c1nc(-c2ccc(C(=O)Nc3ncccn3)cc2)c2c(N)nccn12 [Example 55, (S,E)-4-(8-amino-3-(1-(4-methoxybut-2-enoyl)piperidin-2-yl)imidazo[1,5-a]pyrazin-1-yl)-N-(pyrimidin-2-yl)benzamide]"
4,<1000,"COC/C=C/C(=O)N1CCCC[C@H]1c1nc(-c2ccc(C(=O)Nc3ccncn3)cc2)c2c(N)nccn12 [Example 86, (S,E)-4-(8-amino-3-(1-(4-methoxybut-2-enoyl)piperidin-2-yl)imidazo[1,5-a]pyrazin-1-yl)-N-(pyrimidin-4-yl)benzamide]"
5,<1000,"Nc1nccn2c([C@@H]3CCCCN3C(=O)c3ccnc(Cl)n3)nc(-c3ccc(C(=O)Nc4cccnn4)cc3)c12 [Example 74, (S)-4-(8-amino-3-(1-(2-chloropyrimidine-4-carbonyl)piperidin-2-yl)imidazo[1,5-a]pyrazin-1-yl)-N-(pyridazin-3-yl)benzamide]"

# Target: Lyn enzyme (Homo sapiens (Human), UniProt P07948)
# Test: Lyn enzyme activity, IMAP fluorescence polarization assay
# Settings: 60 min pre-incubation, 2 μM ATP, bin bounds in μM
# Lyn enzyme, sequence (P07948 whole entry): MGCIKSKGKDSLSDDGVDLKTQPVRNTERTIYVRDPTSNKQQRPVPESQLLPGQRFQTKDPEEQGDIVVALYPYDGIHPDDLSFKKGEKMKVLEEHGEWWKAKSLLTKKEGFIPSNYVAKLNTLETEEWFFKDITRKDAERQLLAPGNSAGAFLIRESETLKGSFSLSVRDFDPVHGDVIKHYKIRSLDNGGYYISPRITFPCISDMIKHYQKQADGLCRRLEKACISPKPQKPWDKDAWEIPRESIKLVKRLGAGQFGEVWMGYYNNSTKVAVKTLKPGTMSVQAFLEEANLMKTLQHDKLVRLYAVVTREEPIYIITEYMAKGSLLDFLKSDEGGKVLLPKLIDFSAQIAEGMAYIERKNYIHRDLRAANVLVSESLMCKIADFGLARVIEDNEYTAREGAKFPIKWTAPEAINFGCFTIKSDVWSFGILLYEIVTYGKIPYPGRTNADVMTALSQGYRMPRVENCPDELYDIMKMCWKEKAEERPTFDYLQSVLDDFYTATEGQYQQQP
row,EC50 Lyn activity values [µM],Structure (SMILES)
1,<1,"C=CC(=O)N1CCC[C@H]1c1nc(-c2ccc(C(=O)Nc3cc(CCC)ccn3)cc2)c2c(N)nccn12 [Example 125, (S)-4-(3-(1-acryloylpyrrolidin-2-yl)-8-aminoimidazo[1,5-a]pyrazin-1-yl)-N-(4-propylpyridin-2-yl)benzamide]"
2,<1,"C=CC(=O)N1CCC[C@H]1c1nc(-c2ccc(C(=O)Nc3cc(CC)ccn3)cc2)c2c(N)nccn12 [Example 126, (S)-4-(3-(1-acryloylpyrrolidin-2-yl)-8-aminoimidazo[1,5-a]pyrazin-1-yl)-N-(4-ethylpyridin-2-yl)benzamide]"
3,<1,"C=CC(=O)N1CCC[C@H]1c1nc(-c2ccc(C(=O)Nc3cc(-c4ccccc4)ccn3)cc2)c2c(N)nccn12 [Example 133, (S)-4-(3-(1-acryloylpyrrolidin-2-yl)-8-aminoimidazo[1,5-a]pyrazin-1-yl)-N-(4-phenylpyridin-2-yl)benzamide]"
